From ChEMBL document CHEMBL5579843, “Multimechanism biological profiling of tetrahydro-β-carboline analogues as selective HDAC6 inhibitors for the treatment of Alzheimer's disease” (Eur J Med Chem, 2024)
Calls of active or inactive are those of the source. The calls are words filed in the database; no cut-off is given here.

Columns and labels:
PC-12 [1] = assay: Neuroprotective activity against H2O2-induced oxidative damage in rat PC-12 cells assessed as reduction in intracellular LDH level by measuring residual activity at 10 uM pretreated for 4 hrs followed by H2O2 stimulation and measured after 24 hrs relative to control; type: functional; settings: time 28 hrs
PC-12 [2] = assay: Upregulation of beta-3 tubulin protein expression in rat PC-12 cells measured after 24 hrs by Western blot analysis; type: functional, cell-based; settings: dose 1-10 µM
PC-12 [3] = assay: Induction of neurite outgrowth in rat PC-12 cells assessed as increase in neuronal growth at 10 uM measured after 48 hrs by light microscopic analysis relative to control; type: functional
PC-12 [4] = assay: Neuroprotective activity against H2O2-induced oxidative damage in rat PC-12 cells assessed as inhibition of apoptosis by measuring late apoptotic cells at 10 uM pretreated for 4 hrs followed by H2O2 stimulation and measured after 24 hrs by Annexin V-FITC/PI staining based flow cytometry analysis (reference value: 10.9%); type: functional; design: scale not given: the % may be the effect or the level left; settings: time 28 hrs
PC-12 [5] = assay: Upregulation of GAP-43 protein expression in rat PC-12 cells measured after 24 hrs by Western blot analysis; type: functional, cell-based; settings: dose 1-10 µM
PC-12 [6] = assay: Induction of neurite outgrowth in rat PC-12 cells assessed as increase in average neuronal length at 1 to 10 uM measured after 48 hrs by light microscopic analysis; type: functional, cell-based; settings: dose 1-10 µM
[7] = Antioxidant activity assessed as DPPH scavenging activity incubated for 0.5 hrs by absorbance based assay; type: functional
Histone deacetylase 8 = biological target: T1, Histone deacetylase 8 (Homo sapiens, UniProt Q9BY41); assay: Inhibition of HDAC8 (unknown origin)
T1 sequence (Q9BY41 whole entry): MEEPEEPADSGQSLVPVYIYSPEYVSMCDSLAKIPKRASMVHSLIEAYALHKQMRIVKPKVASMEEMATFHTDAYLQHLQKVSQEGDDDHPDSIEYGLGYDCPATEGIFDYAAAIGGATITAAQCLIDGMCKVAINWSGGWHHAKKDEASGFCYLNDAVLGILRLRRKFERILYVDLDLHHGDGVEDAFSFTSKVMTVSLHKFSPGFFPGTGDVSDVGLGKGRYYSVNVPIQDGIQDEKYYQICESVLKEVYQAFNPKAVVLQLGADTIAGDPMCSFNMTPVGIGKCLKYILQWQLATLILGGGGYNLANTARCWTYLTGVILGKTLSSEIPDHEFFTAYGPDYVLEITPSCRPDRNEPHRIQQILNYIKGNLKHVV

PC-12 [8] = assay: Induction of neurite outgrowth in rat PC-12 cells measured after 48 hrs by light microscopic analysis; type: functional, cell-based; settings: dose 1-10 µM
PC-12 [9] = assay: Induction of neurite outgrowth in rat PC-12 cells assessed as increase in number of neurites per cells at 1 to 10 uM measured after 48 hrs by light microscopic analysis; type: functional, cell-based; settings: dose 1-10 µM
Danio rerio = species on record: Danio rerio; assay: Effect on anxiety-like behavior in scopolamine induced zebrafish alzheimer disease model assessed as exploratory behavior in upper part of aquarium by measuring increase in total swimming distance at 1 mg/L pretreated with scopolamine for 30 mins followed by compound addition for 3 mins by novel tank diving test; type: functional, organism-based
PC-12 [10] = assay: Neuroprotective activity against H2O2-induced oxidative damage in rat PC-12 cells assessed as inhibition of apoptosis by measuring decrease in PARP protein expression pretreated for 4 hrs followed by H2O2 stimulation and measured after 24 hrs by Western blot analysis; type: functional, cell-based; settings: dose 1-10 µM, time 28.0 hrs

For `O=C(NO)c1ccc(CN2CCc3c(n(CC4CC4)c4ccc(F)cc34)C2)cc1`, the Activity (PC-12 [1]) was 35.9%, the Activity (PC-12 [2]) was “Dose-Dependent Effect” and the Activity (PC-12 [3]) was 15.3%. The Activity (PC-12 [4]) was 3.17%, the Activity (PC-12 [5]) was “Dose-Dependent Effect” and the Activity (PC-12 [6]) was “Active”. For the same molecule, the IC50 [7] was 22.5 µM, the IC50 (Histone deacetylase 8) was 1.95 µM and the Activity (PC-12 [8]) was “Dose-Dependent Effect”. For the same molecule, the Activity (PC-12 [9]) was “Active”, the Activity (Danio rerio) was “Active” and the Activity (PC-12 [10]) was “Dose-Dependent Effect”.
